Reference: the NIST ThermoML archive (doi:10.1016/j.jct.2019.05.021)
± gives the expanded uncertainty stated by the source.

Assay: xn = mol fraction of the nth substance listed
Conditions: 100 kPa, Liquid; for viscosity: Falling or rolling sphere viscometry; for mass density: Vibrating tube method

CCCCCCCCCC(=O)OC [methyl decanoate] + CC1CCCCC1
viscosity (293.15 K, x2 = 0): 2.125 ± 0.047 mPa·s
viscosity (293.15 K, x2 = 0.0999): 1.953 ± 0.043 mPa·s
viscosity (293.15 K, x2 = 0.2): 1.783 ± 0.039 mPa·s
viscosity (293.15 K, x2 = 0.3): 1.618 ± 0.035 mPa·s
viscosity (293.15 K, x2 = 0.4001): 1.464 ± 0.032 mPa·s
viscosity (293.15 K, x2 = 0.4998): 1.316 ± 0.028 mPa·s
viscosity (293.15 K, x2 = 0.5999): 1.177 ± 0.025 mPa·s
viscosity (293.15 K, x2 = 0.6999): 1.051 ± 0.023 mPa·s
viscosity (293.15 K, x2 = 0.8): 0.933 ± 0.02 mPa·s
viscosity (293.15 K, x2 = 0.9): 0.825 ± 0.018 mPa·s
mass density (293.15 K, x2 = 0): 872.25 ± 1.8 kg/m3
mass density (293.15 K, x2 = 0.0999): 865.57 ± 1.8 kg/m3
mass density (293.15 K, x2 = 0.2): 858.32 ± 1.7 kg/m3
mass density (293.15 K, x2 = 0.3): 850.46 ± 1.7 kg/m3
mass density (293.15 K, x2 = 0.4001): 841.94 ± 1.7 kg/m3
mass density (293.15 K, x2 = 0.4998): 832.57 ± 1.7 kg/m3
mass density (293.15 K, x2 = 0.5999): 822.32 ± 1.6 kg/m3
mass density (293.15 K, x2 = 0.6999): 811 ± 1.6 kg/m3
mass density (293.15 K, x2 = 0.8): 798.51 ± 1.6 kg/m3
mass density (293.15 K, x2 = 0.9): 784.68 ± 1.6 kg/m3
viscosity (298.15 K, x2 = 0): 1.909 ± 0.042 mPa·s
viscosity (298.15 K, x2 = 0.0999): 1.758 ± 0.038 mPa·s
viscosity (298.15 K, x2 = 0.2): 1.613 ± 0.035 mPa·s
viscosity (298.15 K, x2 = 0.3): 1.473 ± 0.032 mPa·s
viscosity (298.15 K, x2 = 0.4001): 1.339 ± 0.029 mPa·s
viscosity (298.15 K, x2 = 0.4998): 1.209 ± 0.026 mPa·s
viscosity (298.15 K, x2 = 0.5999): 1.084 ± 0.023 mPa·s
viscosity (298.15 K, x2 = 0.6999): 0.969 ± 0.021 mPa·s
viscosity (298.15 K, x2 = 0.8): 0.862 ± 0.019 mPa·s
viscosity (298.15 K, x2 = 0.9): 0.765 ± 0.016 mPa·s
mass density (298.15 K, x2 = 0): 868.16 ± 1.8 kg/m3
mass density (298.15 K, x2 = 0.0999): 861.49 ± 1.7 kg/m3
mass density (298.15 K, x2 = 0.2): 854.23 ± 1.7 kg/m3
mass density (298.15 K, x2 = 0.3): 846.38 ± 1.7 kg/m3
mass density (298.15 K, x2 = 0.4001): 837.84 ± 1.7 kg/m3
mass density (298.15 K, x2 = 0.4998): 828.47 ± 1.7 kg/m3
mass density (298.15 K, x2 = 0.5999): 818.2 ± 1.6 kg/m3
mass density (298.15 K, x2 = 0.6999): 806.84 ± 1.6 kg/m3
mass density (298.15 K, x2 = 0.8): 794.31 ± 1.6 kg/m3
mass density (298.15 K, x2 = 0.9): 780.43 ± 1.6 kg/m3
viscosity (303.15 K, x2 = 0): 1.738 ± 0.038 mPa·s
viscosity (303.15 K, x2 = 0.0999): 1.603 ± 0.035 mPa·s
viscosity (303.15 K, x2 = 0.2): 1.474 ± 0.032 mPa·s
viscosity (303.15 K, x2 = 0.3): 1.35 ± 0.029 mPa·s
viscosity (303.15 K, x2 = 0.4001): 1.232 ± 0.027 mPa·s
viscosity (303.15 K, x2 = 0.4998): 1.12 ± 0.024 mPa·s
viscosity (303.15 K, x2 = 0.5999): 1.012 ± 0.022 mPa·s
viscosity (303.15 K, x2 = 0.6999): 0.907 ± 0.02 mPa·s
viscosity (303.15 K, x2 = 0.8): 0.807 ± 0.017 mPa·s
viscosity (303.15 K, x2 = 0.9): 0.716 ± 0.015 mPa·s
mass density (303.15 K, x2 = 0): 864.06 ± 1.8 kg/m3
mass density (303.15 K, x2 = 0.0999): 857.38 ± 1.7 kg/m3
mass density (303.15 K, x2 = 0.2): 850.12 ± 1.7 kg/m3
mass density (303.15 K, x2 = 0.3): 842.25 ± 1.7 kg/m3
mass density (303.15 K, x2 = 0.4001): 833.72 ± 1.7 kg/m3
mass density (303.15 K, x2 = 0.4998): 824.32 ± 1.7 kg/m3
mass density (303.15 K, x2 = 0.5999): 814.03 ± 1.6 kg/m3
mass density (303.15 K, x2 = 0.6999): 802.63 ± 1.6 kg/m3
mass density (303.15 K, x2 = 0.8): 790.09 ± 1.6 kg/m3
mass density (303.15 K, x2 = 0.9): 776.16 ± 1.6 kg/m3
viscosity (308.15 K, x2 = 0): 1.588 ± 0.035 mPa·s
viscosity (308.15 K, x2 = 0.0999): 1.47 ± 0.032 mPa·s
viscosity (308.15 K, x2 = 0.2): 1.357 ± 0.03 mPa·s
viscosity (308.15 K, x2 = 0.3): 1.247 ± 0.027 mPa·s
viscosity (308.15 K, x2 = 0.4001): 1.142 ± 0.025 mPa·s
viscosity (308.15 K, x2 = 0.4998): 1.038 ± 0.022 mPa·s
viscosity (308.15 K, x2 = 0.5999): 0.937 ± 0.02 mPa·s
viscosity (308.15 K, x2 = 0.6999): 0.843 ± 0.018 mPa·s
viscosity (308.15 K, x2 = 0.8): 0.754 ± 0.016 mPa·s
viscosity (308.15 K, x2 = 0.9): 0.673 ± 0.014 mPa·s
mass density (308.15 K, x2 = 0): 859.96 ± 1.7 kg/m3
mass density (308.15 K, x2 = 0.0999): 853.28 ± 1.7 kg/m3
mass density (308.15 K, x2 = 0.2): 846.01 ± 1.7 kg/m3
mass density (308.15 K, x2 = 0.3): 838.14 ± 1.7 kg/m3
mass density (308.15 K, x2 = 0.4001): 829.57 ± 1.7 kg/m3
mass density (308.15 K, x2 = 0.4998): 820.17 ± 1.6 kg/m3
mass density (308.15 K, x2 = 0.5999): 809.84 ± 1.6 kg/m3
mass density (308.15 K, x2 = 0.6999): 798.43 ± 1.6 kg/m3
mass density (308.15 K, x2 = 0.8): 785.85 ± 1.6 kg/m3
mass density (308.15 K, x2 = 0.9): 771.88 ± 1.6 kg/m3
viscosity (313.15 K, x2 = 0): 1.453 ± 0.032 mPa·s
viscosity (313.15 K, x2 = 0.0999): 1.351 ± 0.03 mPa·s
viscosity (313.15 K, x2 = 0.2): 1.251 ± 0.027 mPa·s
viscosity (313.15 K, x2 = 0.3): 1.152 ± 0.025 mPa·s
viscosity (313.15 K, x2 = 0.4001): 1.057 ± 0.023 mPa·s
viscosity (313.15 K, x2 = 0.4998): 0.963 ± 0.021 mPa·s
viscosity (313.15 K, x2 = 0.5999): 0.872 ± 0.019 mPa·s
viscosity (313.15 K, x2 = 0.6999): 0.787 ± 0.017 mPa·s
viscosity (313.15 K, x2 = 0.8): 0.707 ± 0.015 mPa·s
viscosity (313.15 K, x2 = 0.9): 0.631 ± 0.014 mPa·s
mass density (313.15 K, x2 = 0): 855.85 ± 1.7 kg/m3
mass density (313.15 K, x2 = 0.0999): 849.16 ± 1.7 kg/m3
mass density (313.15 K, x2 = 0.2): 841.89 ± 1.7 kg/m3
mass density (313.15 K, x2 = 0.3): 834.02 ± 1.7 kg/m3
mass density (313.15 K, x2 = 0.4001): 825.43 ± 1.7 kg/m3
mass density (313.15 K, x2 = 0.4998): 816.01 ± 1.6 kg/m3
mass density (313.15 K, x2 = 0.5999): 805.67 ± 1.6 kg/m3
mass density (313.15 K, x2 = 0.6999): 794.22 ± 1.6 kg/m3
mass density (313.15 K, x2 = 0.8): 781.6 ± 1.6 kg/m3
mass density (313.15 K, x2 = 0.9): 767.57 ± 1.5 kg/m3
viscosity (318.15 K, x2 = 0): 1.341 ± 0.029 mPa·s
viscosity (318.15 K, x2 = 0.0999): 1.252 ± 0.027 mPa·s
viscosity (318.15 K, x2 = 0.2): 1.161 ± 0.025 mPa·s
viscosity (318.15 K, x2 = 0.3): 1.072 ± 0.023 mPa·s
viscosity (318.15 K, x2 = 0.4001): 0.986 ± 0.021 mPa·s
viscosity (318.15 K, x2 = 0.4998): 0.904 ± 0.02 mPa·s
viscosity (318.15 K, x2 = 0.5999): 0.822 ± 0.018 mPa·s
viscosity (318.15 K, x2 = 0.6999): 0.743 ± 0.016 mPa·s
viscosity (318.15 K, x2 = 0.8): 0.668 ± 0.014 mPa·s
viscosity (318.15 K, x2 = 0.9): 0.598 ± 0.013 mPa·s
mass density (318.15 K, x2 = 0): 851.74 ± 1.7 kg/m3
mass density (318.15 K, x2 = 0.0999): 845.04 ± 1.7 kg/m3
mass density (318.15 K, x2 = 0.2): 837.76 ± 1.7 kg/m3
mass density (318.15 K, x2 = 0.3): 829.87 ± 1.7 kg/m3
mass density (318.15 K, x2 = 0.4001): 821.28 ± 1.6 kg/m3
mass density (318.15 K, x2 = 0.4998): 811.84 ± 1.6 kg/m3
mass density (318.15 K, x2 = 0.5999): 801.47 ± 1.6 kg/m3
mass density (318.15 K, x2 = 0.6999): 789.99 ± 1.6 kg/m3
mass density (318.15 K, x2 = 0.8): 777.33 ± 1.6 kg/m3
mass density (318.15 K, x2 = 0.9): 763.25 ± 1.5 kg/m3
viscosity (323.15 K, x2 = 0): 1.245 ± 0.027 mPa·s
viscosity (323.15 K, x2 = 0.0999): 1.163 ± 0.025 mPa·s
viscosity (323.15 K, x2 = 0.2): 1.083 ± 0.024 mPa·s
viscosity (323.15 K, x2 = 0.3): 1.003 ± 0.022 mPa·s
viscosity (323.15 K, x2 = 0.4001): 0.925 ± 0.02 mPa·s
viscosity (323.15 K, x2 = 0.4998): 0.847 ± 0.018 mPa·s
viscosity (323.15 K, x2 = 0.5999): 0.772 ± 0.017 mPa·s
viscosity (323.15 K, x2 = 0.6999): 0.7 ± 0.015 mPa·s
viscosity (323.15 K, x2 = 0.8): 0.632 ± 0.014 mPa·s
viscosity (323.15 K, x2 = 0.9): 0.567 ± 0.012 mPa·s
mass density (323.15 K, x2 = 0): 847.62 ± 1.7 kg/m3
mass density (323.15 K, x2 = 0.0999): 840.91 ± 1.7 kg/m3
mass density (323.15 K, x2 = 0.2): 833.62 ± 1.7 kg/m3
mass density (323.15 K, x2 = 0.3): 825.72 ± 1.7 kg/m3
mass density (323.15 K, x2 = 0.4001): 817.11 ± 1.6 kg/m3
mass density (323.15 K, x2 = 0.4998): 807.66 ± 1.6 kg/m3
mass density (323.15 K, x2 = 0.5999): 797.25 ± 1.6 kg/m3
mass density (323.15 K, x2 = 0.6999): 785.75 ± 1.6 kg/m3
mass density (323.15 K, x2 = 0.8): 773.05 ± 1.6 kg/m3
mass density (323.15 K, x2 = 0.9): 758.92 ± 1.5 kg/m3
